# Assay results: patent US20140120165A1, “CORTICOSTEROID PARTICLES AND METHOD OF PRODUCTION” (priority 2010, published 2014)
# Conditions: rat
# Method: Seven budesonide formulations were assessed for the ability to cross the lung by perfusion on an isolated lung perfusion system. LC-MS/MS was utilized to measure budesonide concentration in perfusate samples collected for up to approximately 123 minutes after intratracheal (IT) administration of the representative formulations to male Sprague-Dawley rats. The mass of budesonide remaining in the lung was also measured at the terminus of the procedure.
# After release from quarantine, the study animals were euthanized with an IP injection of a barbiturate (minimum 150 mg/kg pentobarbital). The trachea, pulmonary artery and left ventricle were cannulated and the heart/lung bloc was removed from the thoracic cavity. The heart/lung bloc was placed in an artificial thoracic cavity (Hugo Sachs Electronik-Harvard). The budesonide suspension test formulations were administered by intratracheal installation at a volume of 40-100 μL. Following test formulation delivery, fractionated single pass perfusate samples were collected over a 2 hour period. The concentration of budesonide in the perfusate and lung tissue was determined by Liquid Chromatography-Mass Spectrometry (LC-MS/MS).
# The test formulations contained in single unit dose vials (1.5 ml or 2 ml) were inverted several times before being transferred to a secondary container. Bulk formulations were diluted in saline and were gently swirled, and then aliquots of 40-100 μl were drawn up in a syringe and installed IT into the isolated perfused lung model directly through a cannula placed at the top of the trachea.
# The Study animals were euthanized with an overdose of pentobarbital. During necropsy, the trachea and lungs were excised from the rat and placed on the IPL system cannula. The lungs were ventilated with room air at a rate of 60 breaths per minute by negative pressure ventilation. Chamber pressures were adjusted to reach target goals of a tidal volume of 2.5 ml and a peak expiratory flow of 12 ml/sec.
# Single pass perfusate samples were collected over a 60-120 minute period. Perfusate samples were fractionated into 17 samples collected at approximately (min): 0.67; 1.3; 2.7; 4; 6; 8; 10; 12.5; 15; 22; 29; 36; 43; 63; 83; 103; and 123.
# Perfusate and lung tissue samples were stored at −80° C. prior to subsequent analysis by LC-MS/MS. During operation of the isolated perfused lung (IPL) system pressure and flow recordings were collected using EMKA (version 2.5) software. […] Data was reduced to 5 minute data points for the purposes of statistical comparisons. Mean and standard error were performed on the perfusate and lung tissue concentrations using Microsoft Excel software. Pharmacokinetic properties were evaluated by WinNonlin software (Version 5.0.1, Pharsight Corporation, Sunnyvale, Calif. 94086).
Cmax,Tmax,Compound
104.5 ng/mL,1.3 min,"budesonide [Group-1, reference compound]"
,1.3 min,"budesonide [Group-2, reference compound]"
,1.3 min,"budesonide [Group-3, reference compound]"
146.4 ng/mL,,budesonide [Group-4]
,1.3 min,"budesonide [Group-5, reference compound]"

# Conditions: in water at 20° C.; cited from earlier work
row,Compound,water solubility
1,ClCCl [dichloromethane],13 grams/liter
2,CCOCC [diethyl ether],69 grams/liter
3,CCOC(C)=O [ethyl acetate],83 grams/liter
4,CC(=O)OC(C)C [isopropyl acetate],43 grams/liter
5,CC(=O)CC(C)C [methyl isobutyl ketone],19 grams/liter.
